PMC9090415, “Discovery of small molecule inhibitors of Plasmodium falciparum apicoplast DNA polymerase” (Journal of Enzyme Inhibition and Medicinal Chemistry, 2022)

Target: P. falciparum apicoplast DNA polymerase (Pf-apPOL) (Plasmodium falciparum, UniProt Q8ILY1)
Experiment: Fluorescence-based high-throughput DNA polymerase assay (molecular beacon), primary screen and dose-response;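 on % inhibition ApPOL 90': test concentration in µM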;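 on % inhibition apPOL 180': test concentration in µM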
Format: biochemical
Details: for DNA Pol: 90 min, 10 µM
In short: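 Single-point screening used 10 µM compound with 20 nM polymerase, 20 nM hairpin substrate and 6 µM dNTPs for 90 min at 25 °C. Confirmatory titrations (2.5–80 µM) followed fluorescence at three times, and IC50 was derived from a fit including a cooperativity term n.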

[1] = 'DNA Pol' of the 186 hits list (screen value)
[2] = primary screen value, "DNA Pol"

Chain of P. falciparum apicoplast DNA polymerase (Pf-apPOL) (Q8ILY1 entry or part of it): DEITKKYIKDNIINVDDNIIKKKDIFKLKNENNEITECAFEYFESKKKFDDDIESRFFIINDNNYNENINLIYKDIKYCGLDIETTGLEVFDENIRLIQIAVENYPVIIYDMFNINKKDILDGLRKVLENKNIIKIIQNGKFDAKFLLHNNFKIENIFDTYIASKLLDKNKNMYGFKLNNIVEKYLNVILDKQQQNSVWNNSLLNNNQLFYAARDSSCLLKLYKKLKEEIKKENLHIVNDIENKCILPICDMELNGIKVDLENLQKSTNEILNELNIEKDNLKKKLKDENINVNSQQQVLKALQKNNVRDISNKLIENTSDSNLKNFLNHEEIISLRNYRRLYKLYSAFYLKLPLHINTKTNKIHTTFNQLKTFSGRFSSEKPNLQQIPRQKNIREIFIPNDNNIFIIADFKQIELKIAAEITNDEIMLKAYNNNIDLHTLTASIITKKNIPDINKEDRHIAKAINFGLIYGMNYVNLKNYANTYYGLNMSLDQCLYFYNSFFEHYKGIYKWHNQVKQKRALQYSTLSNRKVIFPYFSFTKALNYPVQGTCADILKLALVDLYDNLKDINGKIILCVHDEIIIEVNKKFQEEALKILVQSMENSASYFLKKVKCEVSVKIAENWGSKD

O=C1Nc2ccc(I)cc2C1=Cc1cc(Br)c(O)c(Br)c1 [Molecule 27, Ic1ccc2c(c1)C(=Cc1cc(Br)c(c(c1)Br)O)C(=O)N2]
DNA Pol [1]: 52 | % inhibition Apo pol 10' (DRC-1, conc 2.5): -2.766% | % inhibition Apo pol 10' (DRC-1, conc 5): 14.7903% | % inhibition Apo pol 10' (DRC-1, conc 10): 55.8319% | % inhibition Apo pol 10' (DRC-1, conc 20): 68.6495% | % inhibition Apo pol 10' (DRC-1, conc 40): 74.9605% | % inhibition Apo pol 10' (DRC-1, conc 80): 94.5024% | % inhibition Apol 90' (DRC-1, 90', conc 2.5): -5.207% | % inhibition Apol 90' (DRC-1, 90', conc 5): 5.358% | % inhibition Apol 90' (DRC-1, 90', conc 10): 51.0216% | % inhibition Apol 90' (DRC-1, 90', conc 20): 63.6894% | % inhibition Apol 90' (DRC-1, 90', conc 40): 72.1753% | % inhibition Apol 90' (DRC-1, 90', conc 80): 93.708% | % inhibition apPOL 180' (DRC-1, 180', conc 2.5): -6.922% | % inhibition apPOL 180' (DRC-1, 180', conc 5): 0.7186% | % inhibition apPOL 180' (DRC-1, 180', conc 10): 40.1564% | % inhibition apPOL 180' (DRC-1, 180', conc 20): 53.0871% | % inhibition apPOL 180' (DRC-1, 180', conc 40): 65.7742% | % inhibition apPOL 180' (DRC-1, 180', conc 80): 93.2975% | % inhibition Apo pol 5' (DRC-2, 5', conc 2.5): -1.67% | % inhibition Apo pol 5' (DRC-2, 5', conc 5): 2.85% | % inhibition Apo pol 5' (DRC-2, 5', conc 10): 38% | % inhibition Apo pol 5' (DRC-2, 5', conc 20): 54% | % inhibition Apo pol 5' (DRC-2, 5', conc 40): 54% | % inhibition Apo pol 5' (DRC-2, 5', conc 80): 54% | % inhibition Apo pol 5' (DRC-2, 5', concentration 20): 54% | % inhibition Apo pol 5' (DRC-2, 5', concentration 40): 54% | % inhibition Apo pol 5' (DRC-2, 5', concentration 80): 54% | % inhibition Apol 40' (DRC-2, 40', conc 2.5): 0.385% | % inhibition Apol 40' (DRC-2, 40', conc 5): 11% | % inhibition Apol 40' (DRC-2, 40', conc 10): 48% | % inhibition Apol 40' (DRC-2, 40', conc 20): 68% | % inhibition Apol 40' (DRC-2, 40', conc 40): 71% | % inhibition Apol 40' (DRC-2, 40', conc 80): 72% | % inhibition Apol 40' (DRC-2, 40', concentration 5): 11% | % inhibition Apol 40' (DRC-2, 40', concentration 10): 48% | % inhibition Apol 40' (DRC-2, 40', concentration 80): 72% | % inhibition ApPOL 90' (DRC-2, 90', conc 2.5): 2.27% | % inhibition ApPOL 90' (DRC-2, 90', conc 5): 11% | % inhibition ApPOL 90' (DRC-2, 90', conc 10): 48% | % inhibition ApPOL 90' (DRC-2, 90', conc 20): 70% | % inhibition ApPOL 90' (DRC-2, 90', conc 40): 74% | % inhibition ApPOL 90' (DRC-2, 90', conc 80): 76% | % inhibition ApPOL 90' (DRC-2, 90', concentration 5): 11% | % inhibition ApPOL 90' (DRC-2, 90', concentration 10): 48% | % inhibition ApPOL 90' (DRC-2, 90', concentration 80): 76% | % inhibition apPOL 180' (DRC-2, 180', conc 2.5): 0.56% | % inhibition apPOL 180' (DRC-2, 180', conc 5): 6% | % inhibition apPOL 180' (DRC-2, 180', conc 10): 40% | % inhibition apPOL 180' (DRC-2, 180', conc 20): 67% | % inhibition apPOL 180' (DRC-2, 180', conc 40): 72% | % inhibition apPOL 180' (DRC-2, 180', conc 80): 76% | % inhibition apPOL 180' (DRC-2, 180', concentration 40): 72% | % inhibition apPOL 180' (DRC-2, 180', concentration 80): 76% | DNA Pol [2]: 52

Nc1c(S(=O)(=O)O)cc(Nc2ccccc2)c2c1C(=O)c1ccccc1C2=O [KU0045407]
DNA Pol ('DNA Pol' of the 186 hits list (primary screen result), unit not given): 49 | % inhibition Apo pol 10' (DRC-1, concentration 2.5): 39.3278% | % inhibition Apo pol 10' (DRC-1, concentration 5): 47.4944% | % inhibition Apo pol 10' (DRC-1, concentration 10): 57.4142% | % inhibition Apo pol 10' (DRC-1, concentration 20): 88.2417% | % inhibition Apo pol 10' (DRC-1, concentration 40): 98.9011% | % inhibition Apo pol 10' (DRC-1, concentration 80): 101.451% | % inhibition Apol 90' (DRC-1, 90', concentration 2.5): 14.8722% | % inhibition Apol 90' (DRC-1, 90', concentration 5): 18.228% | % inhibition Apol 90' (DRC-1, 90', concentration 10): 36.638% | % inhibition Apol 90' (DRC-1, 90', concentration 20): 73.4923% | % inhibition Apol 90' (DRC-1, 90', concentration 40): 92.3698% | % inhibition Apol 90' (DRC-1, 90', concentration 80): 99.716% | % inhibition apPOL 180' (DRC-1, 180', concentration 2.5): 5.356% | % inhibition apPOL 180' (DRC-1, 180', concentration 5): 9.027% | % inhibition apPOL 180' (DRC-1, 180', concentration 10): 27.7566% | % inhibition apPOL 180' (DRC-1, 180', concentration 20): 64.7558% | % inhibition apPOL 180' (DRC-1, 180', concentration 40): 88.0246% | % inhibition apPOL 180' (DRC-1, 180', concentration 80): 99.8487% | % inhibition Apo pol 5' (DRC-2, 5', concentration 10 (unit not given)): 39% | % inhibition Apo pol 5' (DRC-2, 5', concentration 40 (unit not given)): 75% | % inhibition Apol 40' (DRC-2, 40', concentration 5 (unit not given)): 15% | % inhibition Apol 40' (DRC-2, 40', concentration 20 (unit not given)): 81% | % inhibition Apol 40' (DRC-2, 40', concentration 40 (unit not given)): 86% | % inhibition ApPOL 90' (DRC-2, 90', concentration 10 (unit not given)): 39% | % inhibition ApPOL 90' (DRC-2, 90', concentration 20 (unit not given)): 81% | % inhibition apPOL 180' (DRC-2, 180', concentration 20 (unit not given)): 75% | % inhibition apPOL 180' (DRC-2, 180', concentration 80 (unit not given)): 86% | % inhibition Apo pol 5' (DRC-2, 5', concentration 2.5): 2.61% | % inhibition Apo pol 5' (DRC-2, 5', concentration 5): 15% | % inhibition Apo pol 5' (DRC-2, 5', concentration 5 (unit not given)): 15% | % inhibition Apo pol 5' (DRC-2, 5', concentration 10): 39% | % inhibition Apo pol 5' (DRC-2, 5', concentration 20): 73% | % inhibition Apo pol 5' (DRC-2, 5', concentration 40): 75% | % inhibition Apo pol 5' (DRC-2, 5', concentration 80): 62% | % inhibition Apol 40' (DRC-2, 40', concentration 2.5): 1.87% | % inhibition Apol 40' (DRC-2, 40', concentration 5): 15% | % inhibition Apol 40' (DRC-2, 40', concentration 10): 40% | % inhibition Apol 40' (DRC-2, 40', concentration 20): 81% | % inhibition Apol 40' (DRC-2, 40', concentration 40): 86% | % inhibition Apol 40' (DRC-2, 40', concentration 80): 80% | % inhibition ApPOL 90' (DRC-2, 90', concentration 2.5): 2.58% | % inhibition ApPOL 90' (DRC-2, 90', concentration 5): 14% | % inhibition ApPOL 90' (DRC-2, 90', concentration 10): 39% | % inhibition ApPOL 90' (DRC-2, 90', concentration 20): 81% | % inhibition ApPOL 90' (DRC-2, 90', concentration 40): 87% | % inhibition ApPOL 90' (DRC-2, 90', concentration 80): 83% | % inhibition apPOL 180' (DRC-2, 180', concentration 2.5): 3.63% | % inhibition apPOL 180' (DRC-2, 180', concentration 5): 5% | % inhibition apPOL 180' (DRC-2, 180', concentration 10): 30% | % inhibition apPOL 180' (DRC-2, 180', concentration 20): 75% | % inhibition apPOL 180' (DRC-2, 180', concentration 40): 85% | % inhibition apPOL 180' (DRC-2, 180', concentration 80): 86% | DNA Pol (primary screen value of the library well, unit not given): 49

Cc1ccc(N2NC(=O)/C(=C\c3ccc(O)c([N+](=O)[O-])c3)C2=O)cc1Cl [KU0058427]
DNA Pol [1]: 41 | % inhibition Apo pol 10' (DRC-1, conc 2.5): 22.1005% | % inhibition Apo pol 10' (DRC-1, conc 5): 22.1201% | % inhibition Apo pol 10' (DRC-1, conc 10): 57.6403% | % inhibition Apo pol 10' (DRC-1, conc 20): 74.2262% | % inhibition Apo pol 10' (DRC-1, conc 40): 90.9483% | % inhibition Apo pol 10' (DRC-1, conc 80): 95.3494% | % inhibition Apol 90' (DRC-1, 90', conc 2.5): 11.8681% | % inhibition Apol 90' (DRC-1, 90', conc 5): 11.4719% | % inhibition Apol 90' (DRC-1, 90', conc 10): 38.0061% | % inhibition Apol 90' (DRC-1, 90', conc 20): 55.0808% | % inhibition Apol 90' (DRC-1, 90', conc 40): 83.5201% | % inhibition Apol 90' (DRC-1, 90', conc 80): 94.8173% | % inhibition apPOL 180' (DRC-1, 180', conc 2.5): 4.9901% | % inhibition apPOL 180' (DRC-1, 180', conc 5): 2.877% | % inhibition apPOL 180' (DRC-1, 180', conc 10): 25.4818% | % inhibition apPOL 180' (DRC-1, 180', conc 20): 38.9214% | % inhibition apPOL 180' (DRC-1, 180', conc 40): 73.2638% | % inhibition apPOL 180' (DRC-1, 180', conc 80): 93.9984% | % inhibition Apo pol 5' (DRC-2, 5', conc 2.5): 11% | % inhibition Apo pol 5' (DRC-2, 5', conc 5): 21% | % inhibition Apo pol 5' (DRC-2, 5', conc 10): 35% | % inhibition Apo pol 5' (DRC-2, 5', conc 20): 44% | % inhibition Apo pol 5' (DRC-2, 5', conc 40): 54% | % inhibition Apo pol 5' (DRC-2, 5', conc 80): 56% | % inhibition Apo pol 5' (DRC-2, 5', concentration 2.5): 11% | % inhibition Apo pol 5' (DRC-2, 5', concentration 20): 44% | % inhibition Apol 40' (DRC-2, 40', conc 2.5): 11% | % inhibition Apol 40' (DRC-2, 40', conc 5): 20% | % inhibition Apol 40' (DRC-2, 40', conc 10): 34% | % inhibition Apol 40' (DRC-2, 40', conc 20): 46% | % inhibition Apol 40' (DRC-2, 40', conc 40): 64% | % inhibition Apol 40' (DRC-2, 40', conc 80): 74% | % inhibition Apol 40' (DRC-2, 40', concentration 2.5): 11% | % inhibition Apol 40' (DRC-2, 40', concentration 5): 20% | % inhibition ApPOL 90' (DRC-2, 90', conc 2.5): 9% | % inhibition ApPOL 90' (DRC-2, 90', conc 5): 19% | % inhibition ApPOL 90' (DRC-2, 90', conc 10): 28% | % inhibition ApPOL 90' (DRC-2, 90', conc 20): 44% | % inhibition ApPOL 90' (DRC-2, 90', conc 40): 65% | % inhibition ApPOL 90' (DRC-2, 90', conc 80): 78% | % inhibition ApPOL 90' (DRC-2, 90', concentration 2.5): 9% | % inhibition ApPOL 90' (DRC-2, 90', concentration 20): 44% | % inhibition apPOL 180' (DRC-2, 180', conc 2.5): 2.37% | % inhibition apPOL 180' (DRC-2, 180', conc 5): 9% | % inhibition apPOL 180' (DRC-2, 180', conc 10): 20% | % inhibition apPOL 180' (DRC-2, 180', conc 20): 33% | % inhibition apPOL 180' (DRC-2, 180', conc 40): 57% | % inhibition apPOL 180' (DRC-2, 180', conc 80): 80% | % inhibition apPOL 180' (DRC-2, 180', concentration 5): 9% | % inhibition apPOL 180' (DRC-2, 180', concentration 10): 20% | DNA Pol [2]: 41
